Measured values reported in ChEMBL document CHEMBL5634123, “Design and synthesis of 1H-benzo[d]imidazole selective HDAC6 inhibitors with potential therapy for multiple myeloma” (Eur J Med Chem, 2023).
Calls of active or inactive are those of the source. The rule behind the calls is not given here.

How the values were obtained:
RPMI-8226 [1] = test: Induction of apoptosis in human RPMI-8226 cells assessed as necrotic cells at 0.1 uM incubated for 24 hrs by Annexin V-FITC/PI staining based flow cytometry (reference value: 0.90 %); format: functional
RPMI-8226 [2] = test: Induction of apoptosis in human RPMI-8226 cells assessed as necrotic cells at 2.5 uM incubated for 24 hrs by Annexin V-FITC/PI staining based flow cytometry (reference value: 0.90 %); format: functional
[3] = Toxicity in Balb/c nude mouse xenografted with human RPMI-8226 cells assessed as adverse effect on serum ALT level at 10 to 40 mg/kg, po qd for 21 days administered consecutively; format: organism-based; details: in vivo, 504 h, dose 10-40 mg/kg, time 21 day
RPMI-8226 [4] = test: Induction of apoptosis in human RPMI-8226 cells assessed as late apoptotic cells at 0.1 uM incubated for 24 hrs by Annexin V-FITC/PI staining based flow cytometry (reference value: 2.78 %); format: functional
RPMI-8226 [5] = test: Induction of apoptosis in human RPMI-8226 cells assessed as late apoptotic cells at 2.5 uM incubated for 24 hrs by Annexin V-FITC/PI staining based flow cytometry (reference value: 2.78 %); format: functional
RPMI-8226 [6] = test: Induction of apoptosis in human RPMI-8226 cells assessed as necrotic cells at 0.5 uM incubated for 24 hrs by Annexin V-FITC/PI staining based flow cytometry (reference value: 0.90 %); format: functional
[7] = Toxicity in Balb/c nude mouse xenografted with human RPMI-8226 cells assessed as adverse effect on heart at 10 to 40 mg/kg, po qd for 21 days administered consecutively by H and E staining based analysis; format: organism-based; details: in vivo, 504 h, dose 10-40 mg/kg, time 21 day
[8] = Toxicity in Balb/c nude mouse xenografted with human RPMI-8226 cells assessed as body weight loss at 10 to 40 mg/kg, po qd for 21 days administered consecutively; format: organism-based; details: in vivo, 504 h, dose 10-40 mg/kg, time 21 day
RPMI-8226 [9] = test: Induction of cell cycle arrest at G2 phase in human RPMI-8226 cells at 2.5 uM incubated for 24 hrs by PI staining based flow cytometry (reference value: 18.3 %); format: functional
RPMI-8226 [10] = test: Induction of apoptosis in human RPMI-8226 cells assessed as viable cells at 2.5 uM incubated for 24 hrs by Annexin V-FITC/PI staining based flow cytometry (reference value: 90.98 %); format: functional; details: read-out: Activity
[11] = Cmax in mouse at 10 mg/kg, po; format: ADME, organism-based; details: in vivo
[12] = AUC (0 to t) in mouse at 1 mg/kg, iv; format: ADME, organism-based; details: in vivo
[13] = Toxicity in Balb/c nude mouse xenografted with human RPMI-8226 cells assessed as adverse effect on spleen at 10 to 40 mg/kg, po qd for 21 days administered consecutively by H and E staining based analysis; format: organism-based; details: in vivo, 504 h, dose 10-40 mg/kg, time 21 day
RPMI-8226 [14] = test: Induction of apoptosis in human RPMI-8226 cells assessed as decrease in […] expression at 0.1 to 2.5 uM incubated for 24 hrs by Western blot analysis; format: functional, cell-based; details: dose 0.1-2.5 µM
RPMI-8226 [15] = test: Antitumor activity against human RPMI-8226 cells xenografted in Balb/c nude mouse assessed as ratio of tumor to control at 40 mg/kg, po qd for 21 days administered consecutively relative to control; format: functional; details: time 21 day
RPMI-8226 [16] = test: Antitumor activity against human RPMI-8226 cells xenografted in Balb/c nude mouse assessed as reduction in tumor volume at 10 to 40 mg/kg, po qd for 21 days administered consecutively; format: functional, organism-based; details: dose 10-40 mg/kg, time 21.0 day
RPMI-8226 [17] = test: Effect on Ac-H4 expression in human RPMI-8226 cells at 0.1 to 2.5 uM incubated for 24 hrs by Western blot analysis; format: functional, cell-based; details: dose 0.1-2.5 µM
RPMI-8226 [18] = test: Induction of apoptosis in human RPMI-8226 cells assessed as late apoptotic cells at 0.5 uM incubated for 24 hrs by Annexin V-FITC/PI staining based flow cytometry (reference value: 2.78 %); format: functional
[19] = Toxicity in Balb/c nude mouse xenografted with human RPMI-8226 cells assessed as adverse effect on lung at 10 to 40 mg/kg, po qd for 21 days administered consecutively by H and E staining based analysis; format: organism-based; details: in vivo, 504 h, dose 10-40 mg/kg, time 21 day
[20] = AUC (0 to t) in mouse at 10 mg/kg, po; format: ADME, organism-based; details: in vivo
[21] = target: T1, Protein deacetylase HDAC6 (Homo sapiens) (UniProt Q9UBN7); test: Inhibition of HDAC6 in human RPMI-8226 cells assessed as increase in Ac-alpha-tubulin expression at 0.5 to 2.5 uM incubated for 24 hrs by Western blot analysis; format: cell-based; details: dose 0.5-2.5 µM
T1 sequence (whole entry): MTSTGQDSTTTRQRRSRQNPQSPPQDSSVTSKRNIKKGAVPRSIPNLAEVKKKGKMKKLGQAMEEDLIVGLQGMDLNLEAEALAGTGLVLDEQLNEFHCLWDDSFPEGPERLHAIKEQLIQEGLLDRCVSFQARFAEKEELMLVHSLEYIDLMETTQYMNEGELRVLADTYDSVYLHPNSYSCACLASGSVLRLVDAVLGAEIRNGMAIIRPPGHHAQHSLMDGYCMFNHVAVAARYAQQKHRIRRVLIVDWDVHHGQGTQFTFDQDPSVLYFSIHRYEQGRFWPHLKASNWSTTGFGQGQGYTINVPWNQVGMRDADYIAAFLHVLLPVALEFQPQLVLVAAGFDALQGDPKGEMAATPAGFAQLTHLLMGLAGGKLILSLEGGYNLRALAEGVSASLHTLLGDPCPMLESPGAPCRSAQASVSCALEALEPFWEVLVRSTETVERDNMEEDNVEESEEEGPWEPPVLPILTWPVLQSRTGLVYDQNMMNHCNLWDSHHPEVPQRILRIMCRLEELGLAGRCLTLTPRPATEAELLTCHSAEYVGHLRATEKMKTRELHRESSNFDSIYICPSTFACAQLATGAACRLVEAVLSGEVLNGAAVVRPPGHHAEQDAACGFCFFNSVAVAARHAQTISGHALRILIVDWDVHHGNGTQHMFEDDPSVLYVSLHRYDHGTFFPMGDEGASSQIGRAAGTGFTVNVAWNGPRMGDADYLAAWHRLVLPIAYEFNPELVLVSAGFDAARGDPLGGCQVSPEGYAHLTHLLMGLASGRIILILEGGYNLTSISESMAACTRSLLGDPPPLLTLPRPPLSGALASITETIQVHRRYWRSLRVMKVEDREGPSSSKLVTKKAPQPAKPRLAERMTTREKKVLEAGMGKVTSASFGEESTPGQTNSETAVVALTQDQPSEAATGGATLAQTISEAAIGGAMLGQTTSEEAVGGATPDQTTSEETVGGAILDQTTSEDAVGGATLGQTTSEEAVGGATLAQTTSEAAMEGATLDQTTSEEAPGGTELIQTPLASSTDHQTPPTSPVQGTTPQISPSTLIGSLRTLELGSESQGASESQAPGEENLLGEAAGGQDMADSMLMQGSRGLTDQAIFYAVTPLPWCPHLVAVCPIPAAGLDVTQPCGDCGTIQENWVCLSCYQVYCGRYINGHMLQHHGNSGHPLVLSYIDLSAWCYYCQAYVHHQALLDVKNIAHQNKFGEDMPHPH

Question: For `Cn1c([C@@H](Cc2ccccc2)NCc2ccccc2)nc2cc(C(=O)NO)ccc21`, which Activity (RPMI-8226 [1]) is on record?
Answer: 0.45%

Question: What about the Activity (RPMI-8226 [2]) of the same compound?
Answer: 0.26%

Question: And the Activity [3]?
Answer: Non-Toxic

Question: What about the Activity (RPMI-8226 [4]) of the same compound?
Answer: 4.28%

Question: And the Activity (RPMI-8226 [5])?
Answer: 4.26%

Question: What about the Activity (RPMI-8226 [6]) of the same compound?
Answer: 0.53%

Question: What about the Activity [7] of the same compound?
Answer: Non-Toxic

Question: And the Activity [8]?
Answer: Non-Toxic

Question: And the Activity (RPMI-8226 [9])?
Answer: 25.6%

Question: What about the viability at 2.5 µM (RPMI-8226 [10]) of the same compound?
Answer: 76.5%

Question: And the Cmax [11]?
Answer: 177 ng/mL

Question: And the AUC(0-t) [12]?
Answer: 202 ng·h/mL

Question: And the Activity [13]?
Answer: Non-Toxic

Question: What about the Activity (RPMI-8226 [14]) of the same compound?
Answer: Active

Question: What about the T/C (RPMI-8226 [15]) of the same compound?
Answer: 34.8%

Question: What about the Activity (RPMI-8226 [16]) of the same compound?
Answer: Active

Question: What about the Activity (RPMI-8226 [17]) of the same compound?
Answer: inactive

Question: And the Activity (RPMI-8226 [18])?
Answer: 4.24%

Question: And the Activity [19]?
Answer: Non-Toxic

Question: What about the AUC(0-t) [20] of the same compound?
Answer: 52.1 ng·h/mL

Question: And the inhibition [21]?
Answer: Active
